Source: US9938257B2 (Sunshine Lake Pharma Co., Ltd., priority 2015, dated 2018)
Where two headings read alike, the source gives them in different places.

Legend:
[1] = Compound stability in human liver microsomes; assay type: in vitro ADME; settings: pH 7.4; for half-life at 5 μM: human liver microsomes 0.5 mg protein/mL, compound 5 μM, NADPH 1.0 mM, 37° C., read-out: Human T1/2; for CLint scaled at 5 μM: human liver microsomes, in vivo CLint extrapolated
Procedure: (§1) Human or rat liver microsomes incubations were conducted in duplicate in polypropylene tubes. The typical incubation mixtures consisted of human or rat liver microsomes (0.5 mg protein/mL), compounds of interest (5 μM) and NADPH (1.0 mM) in a total volume of 200 μL potassium phosphate buffer (PBS, 100 mM, pH 7.4). Compounds were dissolved in DMSO and diluted with PBS such that the final concentration of DMSO was 0.05%. The enzymatic reactions were commenced with the addition of protein after a 3-min preincubation and incubated in a water bath open to the air at 37° C. Reactions were terminated at various time points (0, 5, 10, 15, 30, 60 min) by adding equal volume of ice-cold acetonitrile. The samples were stored at −80° C. until LC/MS/MS assays.
(§2) The concentrations of compounds in the incubation mixtures of human or rat liver microsomes were determined by a LC/MS/MS method. The ranges of the linearity in the concentration range were determined for each tested compounds.
(§3) A parallel incubation was performed using denatured microsomes as the negative control, and reactions were terminated at various time points (0, 15, 60 min) after incubation at 37° C.
(§4) Dextromethorphan (70 μM) was selected as the positive control, and reactions were terminated at various time points (0, 5, 10, 15, 30, 60 min) after incubation at 37° C. Both positive and negative control samples were included in each assay to ensure the integrity of the microsomal incubation system.
(§5) The concentrations of compounds in human or rat liver microsome incubations were plotted as a percentage of the relevant zero time point control for each reaction. The in vivo CLint were extrapolated (ref.: Naritomi, Y.; Terashita, S.; Kimura, S.; Suzuki, A.; Kagayama, A.; and Sugiyama, Y.; Prediction of human hepatic clearance from in vivo animal experiments and in vitro metabolic studies with liver microsomes from animals and humans. Drug Metab. Dispos., 2001, 29: 1316-1324).

[2] = Compound stability in rat liver microsomes; assay type: in vitro ADME; settings: pH 7.4; for half-life at 5 μM: rat liver microsomes 0.5 mg protein/mL, compound 5 μM, NADPH 1.0 mM, 37° C., read-out: Rat T1/2; for CLint scaled at 5 μM: rat liver microsomes, in vivo CLint extrapolated
Procedure: as §1, §2, §3, §4, §5

[3] = Pharmacokinetics after intravenous and oral administration in rats; assay type: in vivo; settings: for F: oral bioavailability; for AUC(0-t) / half-life / Vd: rat, plasma; for Vd: read-out: Vss
Procedure: The compounds disclosed herein are assessed in pharmacokinetic studies in mice, rats, dogs or monkeys. The compounds are administered as a water solution, 2% HPMC+1% TWEEN®80 in water solution, 5% DMSO+5% solutol in saline, 4% MC suspension or capsule. For the intravenous administration, the animals are generally given at 0.5, 1 or 2 mg/kg dose. For the oral (p.o.) dosing, mice and rats are generally given 0.5, 1, 5 or 10 mg/kg dose, and dogs and monkeys are generally given 10 mg/kg dose. The blood samples (0.3 mL) are drawn at 0.25, 0.5, 1.0, 2.0, 3.0, 4.0, 6.0, 8.0, 12 and 24 h time points or 0.083, 0.25, 0.5, 1.0, 2.0, 4.0, 6.0, 8.0 and 24 h time points and centrifuged at 3,000 or 4000 rpm for 2 to 10 min. The plasma solutions are collected, and stored at −20° C. or −70° C. until analyzed by LC/MS/MS as described above.

Row | Compound | half-life at 5 μM [1] [min] | CLint scaled at 5 μM [1] [mL/min/kg] | half-life at 5 μM [2] [min] | CLint scaled at 5 μM [2] [mL/min/kg] | Clearance (CL) after iv dosing ([3]; iv dosing, dose 1 mg/kg) [L/h/kg] | F ([3]; iv dose 1 mg/kg) [%] | AUC(0-t) ([3]; iv dosing, dose 1 mg/kg) [ng·h/mL] | half-life ([3]; iv dosing, dose 1 mg/kg) [min] | Vd ([3]; iv dosing, dose 1 mg/kg) [L/kg] | Clearance (CL) after iv dosing ([3]; iv dosing, dose 0.5 mg/kg) [L/h/kg] | F ([3]; iv dose 0.5 mg/kg) [%] | AUC(0-t) ([3]; iv dosing, dose 0.5 mg/kg) [ng·h/mL] | half-life ([3]; iv dosing, dose 0.5 mg/kg) [min] | Vd ([3]; iv dosing, dose 0.5 mg/kg) [L/kg] | Cl/F ([3]; iv dosing, dose 1 mg/kg) [L/h/kg]
1 | CC(=O)N1CCC2(CCC(Nc3nc(Nc4cnn(C5CCNCC5)c4)ncc3Cl)CC2)CC1 [Ex. 33, 1-(9-((5-chloro-2-((1-(piperidin-4-yl)-1H-pyrazol-4-yl)amino)pyrimidin-4-yl)amino)-3-azaspiro[5.5]undecan-3-yl)ethanone] | 275 | 6.32 | 321 | 7.73 | – | – | – | – | – | – | – | – | – | – | –
2 | N#CCC(=O)N1CC2CC(Nc3nc(Nc4cnn(C5CCCNC5)c4)ncc3Cl)CC2C1 (centres unmarked) [Ex. 3, 3-(5-((5-chloro-2-((1-(piperidin-3-yl)-1H-pyrazol-4-yl)amino)pyrimidin-4-yl)amino)hexahydrocyclopenta[c]pyrrol-2(1H)-yl)-3-oxopropanenitrile] | 555 | 3.13 | 3.88 | 639 | – | – | – | – | – | – | – | – | – | – | –
3 | Cn1cc(Nc2ncc(Cl)c(NC3CCC4(CC3)CCN(C(=O)CC3CC3)CC4)n2)cn1 [Ex. 20, 1-(9-((5-chloro-2-((1-methyl-1H-pyrazol-4-yl)amino)pyrimidin-4-yl)amino)-3-azaspiro[5.5]undecan-3-yl)-2-cyclopropyl ethanone] | – | – | – | – | – | – | – | – | – | 1.48 | 91.2 | 348 | 42 | 1.07 | –
4 | Cn1cc(Nc2ncc(Cl)c(NC3CCC4(CC3)CCN(S(=O)(=O)C3CC3)CC4)n2)cn1 | 61 | 28.5 | 30 | 82.7 | – | 64.4 | 363 | 37.2 | 2.07 | – | – | – | – | – | 2.78
5 | CC(=O)N1CC2CC(Nc3nc(Nc4cnn(C5CCCNC5)c4)ncc3Cl)CC2C1 (centres unmarked) [Ex. 4, 1-(5-((5-chloro-2-((1-(piperidin-3-yl)-1H-pyrazol-4-yl)amino)pyrimidin-4-yl)amino)hexahydrocyclopenta[c]pyrrol-2(1H)-yl)ethanone] | 951 | 1.83 | 68.7 | 36.1 | – | – | – | – | – | – | – | – | – | – | –
6 | Cn1cc(Nc2ncc(Cl)c(NC3CCC4(CC3)CCN(C(=O)C3CC3)CC4)n2)cn1 [Ex. 22, (9-((5-chloro-2-((1-methyl-1H-pyrazol-4-yl)amino)pyrimidin-4-yl)amino)-3-azaspiro[5.5]undecan-3-yl)(cyclopropyl)methanone] | 65.7 | 26.5 | 3.33 | 745 | 1.34 | 84.6 | 746 | 33.6 | 1.21 | – | – | – | – | – | –
7 | Cn1cc(Nc2ncc(Cl)c(NC3CCC4(CC3)CCN(CC(C)(C)O)CC4)n2)cn1 [Ex. 21, 1-(9-((5-chloro-2-((1-methyl-1H-pyrazol-4-yl)amino)pyrimidin-4-yl)amino)-3-azaspiro[5.5]undecan-3-yl)-2-methylpropan-2-ol] | 404 | 4.3 | 62.9 | 39.5 | 6.54 | 118.2 | 147 | 87.6 | 11.9 | – | – | – | – | – | –
8 | CC(=O)N1CC2CC(Nc3nc(Nc4cnn(C5CCNCC5)c4)ncc3Cl)CC2C1 (centres unmarked) [Ex. 6, 1-(5-((5-chloro-2-((1-(piperidin-4-yl)-1H-pyrazol-4-yl)amino)pyrimidin-4-yl)amino)hexahydrocyclopenta[c]pyrrol-2(1H)-yl)ethanone] | 660 | 2.63 | 2640 | 0.94 | – | – | – | – | – | – | – | – | – | – | –
9 | N#CCC(=O)N1CC2CC(Nc3nc(Nc4cnn(C5CCNCC5)c4)ncc3Cl)CC2C1 (centres unmarked) [Ex. 5, 3-(5-((5-chloro-2-((1-(piperidin-4-yl)-1H-pyrazol-4-yl)amino)pyrimidin-4-yl)amino)hexahydrocyclopenta[c]pyrrol-2(1H)-yl)-3-oxopropanenitrile] | 1040 | 1.66 | – | – | – | – | – | – | – | – | – | – | – | – | –

Further lines, with some results ahead:

Row | half-life at 5 μM [1] [min] | CLint scaled at 5 μM [1] [mL/min/kg] | half-life at 5 μM [2] [min] | CLint scaled at 5 μM [2] [mL/min/kg] | Clearance (CL) after iv dosing ([3]; iv dosing, dose 1 mg/kg) [L/h/kg] | F ([3]; iv dose 1 mg/kg) [%] | AUC(0-t) ([3]; iv dosing, dose 1 mg/kg) [ng·h/mL] | half-life ([3]; iv dosing, dose 1 mg/kg) [min] | Vd ([3]; iv dosing, dose 1 mg/kg) [L/kg] | Compound | Clearance (CL) after iv dosing ([3]; iv dosing, dose 0.5 mg/kg) [L/h/kg] | F ([3]; iv dose 0.5 mg/kg) [%] | AUC(0-t) ([3]; iv dosing, dose 0.5 mg/kg) [ng·h/mL] | half-life ([3]; iv dosing, dose 0.5 mg/kg) [min] | Vd ([3]; iv dosing, dose 0.5 mg/kg) [L/kg] | Cl/F ([3]; iv dosing, dose 1 mg/kg) [L/h/kg]
10 | 310 | 5.6 | 100 | 24.8 | 2.08 | 40.7 | 485 | 43.2 | 0.81 | CC(=O)N1CC2CC(CC#N)(Nc3nc(Nc4cnn(C)c4)ncc3Cl)CC2C1 (centres unmarked) [Ex. 48, 2-(2-acetyl-5-((5-chloro-2-((1-methyl-1H-pyrazol-4-yl)amino)pyrimidin-4-yl)amino)octahydrocyclopenta[c]pyrrol-5-yl)acetonitrile] | – | – | – | – | – | –
11 | 43.2 | 40.2 | 19.8 | 126 | 2.42 | 102.8 | 413 | 21 | 1.19 | Cn1cc(Nc2ncc(Cl)c(NC3CC4CN(C(=O)N5CCOCC5)CC4C3)n2)cn1 (centres unmarked) [Ex. 29, (5-((5-chloro-2-((1-methyl-1H-pyrazol-4-yl)amino)pyrimidin-4-yl)amino)hexahydrocyclopenta[c]pyrrol-2(1H)-yl)(morpholino)methanone] | – | – | – | – | – | –
12 | 24.9 | 69.8 | 8.07 | 308 | 0.93 | 268.4 | 1140 | 36.6 | 0.71 | Cn1cc(Nc2ncc(Cl)c(NC3CC4CN(c5ccc(C#N)nn5)CC4C3)n2)cn1 (centres unmarked) [Ex. 30, 6-(5-((5-chloro-2-((1-methyl-1H-pyrazol-4-yl)amino)pyrimidin-4-yl)amino)hexahydrocyclopenta[c]pyrrol-2(1H)-yl)pyridazine-3-carbonitrile] | – | – | – | – | – | –
13 | – | – | – | – | 4.52 | 19.5 | 235 | 18 | 1.22 | COc1ccc(-n2cc(Nc3ncc(Cl)c(NC4CC5CN(C(C)=O)CC5C4)n3)cn2)cn1 (centres unmarked) [Ex. 11, 1-(5-((5-chloro-2-((1-(6-methoxypyridin-3-yl)-1H-pyrazol-4-yl)amino)pyrimidin-4-yl)amino)hexahydrocyclopenta[c]pyrrol-2(1H)-yl)ethanone] | – | – | – | – | – | –
14 | 69.2 | 25.1 | 30.7 | 81 | – | – | – | – | – | CC(C)(O)Cn1cc(Nc2ncc(Cl)c(NC3CC4CN(C(=O)NC5CC5)CC4C3)n2)cn1 (centres unmarked) [Ex. 36, 5-((5-chloro-2-((1-(2-hydroxy-2-methylpropyl)-1H-pyrazol-4-yl)amino)pyrimidin-4-yl)amino)-N-cyclopropylhexahydrocyclopenta[c]pyrrole-2(1H)-carboxamide] | – | – | – | – | – | –
15 | 153 | 11.3 | 375 | 6.6 | – | – | – | – | – | CC(O)Cn1cc(Nc2nccc(NC3CC4CN(C(=O)NC5CC5)CC4C3)n2)cn1 (centres unmarked) [Ex. 42, N-cyclopropyl-5-((2-((1-(2-hydroxypropyl)-1H-pyrazol-4-yl)amino)pyrimidin-4-yl)amino)hexahydrocyclopenta[c]pyrrole-2(1H)-carboxamide] | – | – | – | – | – | –
16 | – | – | – | – | 4.66 | 22.5 | 218 | 13.2 | 0.93 | Cn1cc(Nc2ncc(Cl)c(NC3CC4CN(C(=O)c5ccccc5)CC4C3)n2)cn1 (centres unmarked) [Ex. 27, (5-((5-chloro-2-((1-methyl-1H-pyrazol-4-yl)amino)pyrimidin-4-yl)amino)hexahydrocyclopenta[c]pyrrol-2(1H)-yl)(phenyl)methanone] | – | – | – | – | – | –
